The source of these data is PubChem BioAssay (NCI).

In general, TGI refers to the concentration at which net growth stops.

Test systems include DU-145 prostate; HL-60(TB) leukemia; HT29 colon; MCF7 breast; MDA-MB-231 breast; MOLT-4 leukemia; NCI/ADR-RES ovarian; SF-295 CNS; SN12C renal; SW-620 colon; UO-31 renal.
What all share (assay): DTP human tumour cell line panel, 48 h

Molecules are shown by their SMILES.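 Protocol summary: plate cells (96-well), add compound at 5 concentrations, incubate 48 h, interpolate endpoints linearly. TGI: concentration producing complete growth inhibition.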

Turning to `O=C(NCCCN(CCCCN(CCCNC(=O)C(F)(F)F)CCCc1ccccc1)CCCc1ccccc1)C(F)(F)F`, the TGI in the assay with DU-145 prostate is 3.99 µM; in the assay with HL-60(TB) leukemia, 23.9 µM; in the assay with HT29 colon, 3.23 µM; in the assay on MCF7 breast, 3.05 µM; in the assay on MDA-MB-231 breast, 3.11 µM; in the assay with MOLT-4 leukemia it was 4.48 µM. The TGI in the assay on NCI/ADR-RES ovarian was determined as 15.5 µM; in the assay with SF-295 CNS, 3.3 µM; in the assay with SN12C renal, 5.8 µM; in the assay with SW-620 colon it was 3.93 µM; in the assay on UO-31 renal, 2.52 µM.

For `O=C(NS(=O)(=O)OCC(Cl)(Cl)Cl)SCCC(F)(F)C(F)(F)C(F)(F)C(F)(F)C(F)(F)C(F)(F)F`, the TGI with DU-145 prostate is over 100 µM; in the assay with HL-60(TB) leukemia, 51.2 µM; with HT29 colon, 35.6 µM; with MCF7 breast, 40.6 µM; in the assay with MDA-MB-231 breast, 61.9 µM; in the assay on MOLT-4 leukemia it was 80 µM. Further, the TGI in the assay on NCI/ADR-RES ovarian was 48.1 µM; with SF-295 CNS, 38.9 µM; in the assay on SN12C renal it was over 100 µM; in the assay with SW-620 colon, 38.3 µM; in the assay on UO-31 renal it was over 100 µM.

Turning to `CC(=O)OC1O[C@@H](C(C)(C)O)CC[C@@H]1[C@H]1CC[C@@]2(C)C3=C(CC[C@]12C)[C@@]1(C)C[C@@H](OC(=O)CC(C)(O)CC(=O)O)[C@H](OC(C)=O)C(C)(C)C1CC3` (some centres not stated), the TGI in the assay on DU-145 prostate came to 33.2 µM; in the assay with HL-60(TB) leukemia, 65.1 µM; in the assay with HT29 colon, 36.4 µM; in the assay with MCF7 breast, 32.5 µM; in the assay on MDA-MB-231 breast it was 45.5 µM; with MOLT-4 leukemia it was 43.9 µM. The TGI in the assay with NCI/ADR-RES ovarian amounted to 33.7 µM; in the assay on SF-295 CNS, 32.4 µM; with SN12C renal, 36.2 µM; with SW-620 colon, 37.4 µM; in the assay on UO-31 renal, 29.4 µM.

On to `O=C(O)c1cccnc1`, for which the TGI in the assay on DU-145 prostate, in the assay on HL-60(TB) leukemia, with HT29 colon, in the assay on MCF7 breast, with MDA-MB-231 breast and in the assay with MOLT-4 leukemia was over 100 µM in each case. Moreover, the TGI with NCI/ADR-RES ovarian, with SF-295 CNS, in the assay with SN12C renal, with SW-620 colon and in the assay on UO-31 renal was over 100 µM in each case.

As to `Cc1ccc(-c2c3c(n(C4OC(CO)C(O)C(O)C4O)c(=S)c2C#N)CC(C)(C)CC3=O)cc1` (configuration not stated), the TGI in the assay on DU-145 prostate, in the assay with HL-60(TB) leukemia, in the assay with HT29 colon, in the assay on MCF7 breast, in the assay with MDA-MB-231 breast and in the assay on MOLT-4 leukemia was over 100 µM each time. Further, the concentration for total growth inhibition (TGI) with NCI/ADR-RES ovarian, in the assay with SF-295 CNS, in the assay with SN12C renal, in the assay on SW-620 colon and with UO-31 renal was over 100 µM throughout.

In the case of `COc1ccc(N2C(=O)CS(=O)(=O)C2c2cccc(Oc3ccccc3)c2)cc1` (configuration not stated), the TGI in the assay on DU-145 prostate was over 100 µM; in the assay with HL-60(TB) leukemia, over 100 µM; with HT29 colon, 50.9 µM; with MCF7 breast it was 4.72 µM; in the assay on MDA-MB-231 breast it was 7.6 µM; in the assay on MOLT-4 leukemia it was 21.9 µM. For the same compound, the TGI is 15.4 µM in the assay with NCI/ADR-RES ovarian; over 100 µM in the assay on SF-295 CNS; 21.4 µM with SN12C renal; over 100 µM with SW-620 colon; 71.3 µM with UO-31 renal.

As to `O=C(O)CCN(CCC(=O)O)c1ccc(/C=C2\SC(=S)NC2=O)cc1`, the TGI with DU-145 prostate, in the assay with HL-60(TB) leukemia, in the assay with HT29 colon, in the assay on MCF7 breast, with MDA-MB-231 breast and in the assay with MOLT-4 leukemia was over 100 µM each time. Moreover, the concentration for total growth inhibition (TGI) in the assay on NCI/ADR-RES ovarian, in the assay on SF-295 CNS, in the assay on SN12C renal, in the assay with SW-620 colon and in the assay on UO-31 renal was over 100 µM throughout.

For `NCCCNCCCCNCCCN`, the concentration for total growth inhibition (TGI) with DU-145 prostate was 23.2 µM; in the assay on HL-60(TB) leukemia it was 15.2 µM; in the assay on HT29 colon, 76.5 µM; in the assay with MCF7 breast, 13.1 µM; with MDA-MB-231 breast, over 60.8 µM; in the assay on MOLT-4 leukemia, 17.5 µM. For the same compound, the concentration for total growth inhibition (TGI) in the assay with NCI/ADR-RES ovarian is over 91.6 µM; with SF-295 CNS it was over 100 µM; in the assay with SN12C renal, 15.4 µM; with SW-620 colon, 14 µM; in the assay with UO-31 renal, 5.02 µM.

With `Cc1cn(CCCCCOC(=O)NC(CCCN=C(N)N)C(=O)O)c(=O)[nH]c1=O` (configuration not stated), the TGI with DU-145 prostate is over 100 µM; in the assay on HL-60(TB) leukemia, over 100 µM; in the assay with HT29 colon it was 60.1 µM; in the assay with MCF7 breast, over 100 µM; in the assay with MDA-MB-231 breast, over 100 µM; in the assay on MOLT-4 leukemia it was over 100 µM. Besides, the total growth inhibition concentration (TGI) in the assay with NCI/ADR-RES ovarian, in the assay with SF-295 CNS, in the assay with SN12C renal, with SW-620 colon and with UO-31 renal was over 100 µM each time.

With `O=P(O)(Cc1ccccc1)c1ccccc1-c1ccccc1`, the TGI in the assay with DU-145 prostate, in the assay with HL-60(TB) leukemia, in the assay on HT29 colon, with MCF7 breast, with MDA-MB-231 breast and in the assay with MOLT-4 leukemia was over 100 µM in each case. Also, the TGI in the assay on NCI/ADR-RES ovarian, in the assay on SF-295 CNS, in the assay with SN12C renal, in the assay with SW-620 colon and with UO-31 renal was over 100 µM throughout.

Take `Oc1ccc(-c2nc(-c3ccc(F)cc3)c(-c3ccc4ccccc4n3)[nH]2)cc1`: the TGI in the assay on DU-145 prostate is 34.8 µM; with HL-60(TB) leukemia, over 100 µM; in the assay with HT29 colon it was 20.2 µM; in the assay on MCF7 breast, 18.7 µM; in the assay with MDA-MB-231 breast, 41.4 µM; in the assay on MOLT-4 leukemia, 25.2 µM. For the same compound, the TGI in the assay with NCI/ADR-RES ovarian stood at 20.5 µM; in the assay on SF-295 CNS, 24 µM; in the assay on SN12C renal, 32.1 µM; in the assay on SW-620 colon, 29.1 µM; in the assay on UO-31 renal, 26.1 µM.

For the compound `O=S(=O)(O)c1ccc(N=Nc2ccc(N=Nc3c(O)ccc4ccccc34)cc2)cc1`, the total growth inhibition concentration (TGI) in the assay on DU-145 prostate, in the assay with HL-60(TB) leukemia, with HT29 colon, with MCF7 breast, in the assay with MDA-MB-231 breast and in the assay with MOLT-4 leukemia was over 100 µM each time. Further, the total growth inhibition concentration (TGI) with NCI/ADR-RES ovarian, in the assay on SF-295 CNS, in the assay on SN12C renal, in the assay with SW-620 colon and in the assay on UO-31 renal was over 100 µM each time.
